The test system of assay [1] is Human immunodeficiency virus 1. Put plainly: Antiviral activity against HIV1. The class given is functional, organism-based.
A further assay has as its system Human rhinovirus sp. Put plainly: Antiviral activity against Human rhinovirus. It is filed as functional, organism-based.
The test system of assay [2] is unidentified influenza virus. In words: Antiviral activity against influenza virus. The class given is functional, organism-based.
The next assay deals with Enterovirus C. In words: Antiviral activity against Poliovirus. The class given is functional, organism-based.
The test system of another assay is Respirovirus muris. Put plainly: Antiviral activity against Sendai virus. It is filed as functional, organism-based.
A further assay relates to Influenza B virus. Put plainly: Antiviral activity against influenza B virus. It is filed as functional, organism-based.
The test system of another assay is Influenza C virus. In words: Antiviral activity against Influenza C virus. It is filed as functional, organism-based.
The next assay deals with Influenza A virus. In words: Antiviral activity against influenza H1N1 virus. It is filed as functional, organism-based.
In the next assay the test system is H2N2 subtype. In words: Antiviral activity against influenza H2N2 virus. To be noted: Influenza A virus. It is filed as functional, organism-based.
In a further assay the test system is Influenza A virus H3N2. Put plainly: Antiviral activity against influenza H3N2 virus. The class given is functional, organism-based, H3N2 subtype.
The next assay has as its system H5N1 subtype. In words: Antiviral activity against influenza H5N1 virus. To be noted: Influenza A virus. The class given is functional, organism-based.
A further assay deals with Human adenovirus 2. Put plainly: Antiviral activity against Human adenovirus 2. The class given is functional, organism-based. Conditions: Human mastadenovirus C.
The subject of the next assay is Camelpox virus. Put plainly: Antiviral activity against Camelpox virus. It is filed as functional, organism-based.
In the next assay the test system is Cowpox virus. In words: Antiviral activity against Cowpox virus. It is filed as functional, organism-based.
The next assay concerns Monkeypox virus. In words: Antiviral activity against Monkeypox virus. It is filed as functional, organism-based.
The next assay deals with Vaccinia virus. In words: Antiviral activity against Vaccinia virus. It is filed as functional, organism-based, Orthopoxvirus vaccinia.
Another assay has as its system Human respirovirus 1. In words: Antiviral activity against Human parainfluenza virus 1. The class given is functional, organism-based.
Assay [3] relates to Human parainfluenza virus 2. Put plainly: Antiviral activity against Human parainfluenza virus 2. It is filed as functional, organism-based. To be noted: Human orthorubulavirus 2.
For another assay, the system named is Human respirovirus 3. In words: Antiviral activity against Human parainfluenza virus 3. The class given is functional, organism-based.
For another assay, the system named is Simplexvirus. In words: Antiviral activity against Herpes simplex virus. The class given is functional, organism-based.
The next assay deals with Human betaherpesvirus 5. Put plainly: Antiviral activity against Human cytomegalovirus. The class given is functional, organism-based. Conditions: Human betaherpesvirus 5.
In another assay the test system is Hepatitis C virus. Put plainly: Antiviral activity against Hepatitis C virus c. It is filed as functional, organism-based, Hepacivirus hominis.
The next assay concerns Coxsackievirus. In words: Antiviral activity against Coxsackievirus. It is filed as functional, organism-based.
The next assay has as its system Echovirus. In words: Antiviral activity against Echovirus. It is filed as functional, organism-based.
The next assay deals with Enterovirus. In words: Antiviral activity against Enterovirus. It is filed as functional, organism-based.

`O=c1n(Cc2nc3ccccc3n2CCCCO)c2cnccc2n1C1CC1`: the half-maximal inhibitory concentration (IC50) in assay [1] turned out to be 200 µM; in the assay on Human rhinovirus sp. it was 200 µM; in [2] it was 200 µM; in the assay with Enterovirus C, 200 µM; in the assay with Respirovirus muris it was 25 µM.
Regarding `NC(=O)c1nc(F)cnc1O`, the 50% inhibitory concentration (IC50) is 0.089 µM in the assay on Influenza B virus, 0.044 µM in the assay with Influenza C virus, 0.16 µM in the assay on Influenza A virus and 0.048 µM with H2N2 subtype.
For `CC(=O)N[C@H]1[C@H]([C@H](O)[C@H](O)CO)OC(C(=O)O)=C[C@@H]1NC(=N)N` [ZANAMIVIR], the half-inhibitory concentration (IC50) was determined as 0.76 µM in the assay on H2N2 subtype, 0.68 µM in the assay with Influenza A virus H3N2 and 0.22 µM in the assay on H5N1 subtype.
On to `NC(=O)c1ncn([C@@H]2O[C@H](CO)[C@@H](O)[C@H]2O)n1` [RIBAVIRIN], for which the IC50 with Human adenovirus 2 came to 100 µM; in the assay on Camelpox virus it was 215 µM; in the assay on Cowpox virus it was 410 µM; in the assay with Influenza B virus, 19 µM; in the assay with Influenza A virus, 7.7 µM; in the assay with H2N2 subtype, 13.8 µM. For the same molecule, the values for the IC50 in the assay on Influenza A virus H3N2, in the assay with Monkeypox virus and in the assay on Vaccinia virus (Orthopoxvirus vaccinia) were 20 µM, 145 µM and 281 µM, respectively.
For the molecule `Nc1ccn(C[C@H]2COP(=O)(O)CO2)c(=O)n1` [CYCLIC CIDOFOVIR], the concentration for half-maximal inhibition (IC50) in the assay on Cowpox virus came out at 51 µM; in the assay on Monkeypox virus it was 760 µM; in the assay with Vaccinia virus (Orthopoxvirus vaccinia), 21 µM.
`CC(C)C(=O)N[C@H]1[C@H]([C@H](O)[C@H](O)CO)OC(C(=O)O)=C[C@@H]1NS(=O)(=O)C(Cl)Cl`: the half-inhibitory concentration (IC50) with Human respirovirus 1 worked out at 1.2 µM; in assay [3] it was 1.9 µM; in the assay with Human respirovirus 3 it was 2 µM; with Respirovirus muris it was 1.8 µM.
For the molecule `C/C=C\[C@@H]1C[C@H](C(=O)O)N[C@H]1[C@@H](NC(C)=O)[C@](C)(CCC)OC`, the concentration for half-maximal inhibition (IC50) in the assay on Human respirovirus 1 is 14.1 µM.
As for `Nc1ccn(C[C@@H](CO)OCP(=O)(O)O)c(=O)n1` (stereo in doubt; form 1) [CIDOFOVIR], the IC50 amounted to 3.1 µM in the assay with Human adenovirus 2; 3.3 µM in the assay with Simplexvirus; 48 µM with Cowpox virus; 0.06 µM in the assay on Human betaherpesvirus 5; 505 µM in the assay on Monkeypox virus; 23 µM with Vaccinia virus.
In turn, `C=C[C@@H]1C[C@]1(NC(=O)[C@@H]1C[C@@H](Oc2cc(-c3ccccc3)nc3cc(OC)ccc23)CN1C(=O)[C@H](CC(C)C)NC(=O)OC(C)(C)C)C(=O)O` showed a 50% inhibitory concentration (IC50) with Hepatitis C virus of 0.492 µM. In other words, the sub-micromolar range.
Turning to `CCO/N=C/c1ccc(OCCC2CCN(c3ccc(Cl)nn3)CC2)cc1`, the IC50 stood at 0.825 µM in the assay on Coxsackievirus, 0.067 µM in the assay with Echovirus, 0.001 µM in the assay with Enterovirus and 0.026 µM in the assay with Human rhinovirus sp..
For the molecule `CCOC(=O)C1=C[C@@H](OC(CC)CC)[C@H](NC(C)=O)[C@@H](N)C1` [OSELTAMIVIR], the IC50 was found to be 2.1 µM in the assay on Influenza B virus; 2.5 µM in the assay on Influenza A virus; 1.45 µM with H2N2 subtype; 0.26 µM in the assay with Influenza A virus H3N2; 34 µM with H5N1 subtype; 45 µM in assay [2].
In the case of `CC(C)C(=O)N[C@H]1[C@H]([C@H](O)[C@H](O)CO)OC(C(=O)O)=C[C@@H]1N=[N+]=[N-]`, the IC50 in assay [3] worked out at 2.2 µM; in the assay on Respirovirus muris, 0.1 µM.

The values above are taken from ChEMBL document CHEMBL1136837, “Unified QSAR approach to antimicrobials. 4. Multi-target QSAR modeling and comparative multi-distance study of the giant components of antiviral drug-drug complex networks” (Bioorg Med Chem, 2009).
